Like-named read-outs stand apart in the source and are kept apart here.
Experiments:
[1] = biological target: T1, HCV NS3/4A protease complex, BMS strain (UniProt P27958, species not given/STRAIN_BMS); assay: FRET peptide assay to monitor HCV NS3/4A proteolytic activity (BMS strain); assay type: biochemical, HCV genotype 1a
T1 construct: said of H77 and J4L6S, not expressly of BMS; fused on or other part: A three-lysine solubilising tail at the NS4A C-terminus and purification on Ni-NTA are described for the H77 and J4L6S constructs
Description: HCV NS3 protease complexes, derived from the BMS strain, H77 strain or J4L6S strain, were generated, as described below. These purified recombinant proteins were generated for use in a homogeneous assay (see below) to provide an indication of how effective compounds of the present disclosure would be in inhibiting HCV NS3 proteolytic activity.
Serum from an HCV-infected patient was obtained from Dr. T. Wright, San Francisco Hospital. An engineered full-length cDNA (compliment deoxyribonucleic acid) template of the HCV genome (BMS strain) was constructed from DNA fragments obtained by reverse transcription-PCR (RT-PCR) of serum RNA (ribonucleic acid) and using primers selected on the basis of homology between other genotype 1a strains. From the determination of the entire genome sequence, a genotype 1a was assigned to the HCV isolate according to the classification of Simmonds et al. (See P Simmonds, K A Rose, S Graham, S W Chan, F McOmish, B C Dow, E A Follett, P L Yap and H Marsden, J. Clin. Microbiol., 31(6), 1493-1503 (1993)). […] The infectious clones, H77 (1a genotype) and J4L6S (1b genotype) were obtained from R. Purcell (NIH) and the sequences are published in Genbank (AAB67036, see Yanagi, M., Purcell, R. H., Emerson, S. U. and Bukh, J. Proc. Natl. Acad. Sci. U.S.A. 94(16), 8738-8743 (1997); AF054247, see Yanagi, M., St Claire, M., Shapiro, M., Emerson, S. U., Purcell, R. H. and Bukh, J, Virology 244 (1), 161-172. (1998)).
NS3/4A protease complex-containing fractions were pooled and loaded on a desalting column Superdex-S200 pre-equilibrated with buffer D (25 mM HEPES, pH 7.5, 20% glycerol, 300 mM NaCl, 0.2% Triton X-100, 10 mM βME). Sample was loaded at a flow rate of 1 mL/min. NS3/4A protease complex-containing fractions were pooled and concentrated to approximately 0.5 mg/ml. The purity of the NS3/4A protease complexes, derived from the BMS, H77 and J4L6S strains, were judged to be greater than 90% by SDS-PAGE and mass spectrometry analyses. The enzyme was stored at −80° C., thawed on ice and diluted prior to use in assay buffer.
The purpose of this in vitro assay was to measure the inhibition of HCV NS3 protease complexes, derived from the BMS strain, H77 strain or J4L6S strain, as described above, by compounds of the present disclosure. This assay provides an indication of how effective compounds of the present disclosure would be in inhibiting HCV NS3 proteolytic activity.
In order to monitor HCV NS3/4A protease activity, an NS3/4A peptide substrate was used. The substrate was RET S1 (Resonance Energy Transfer Depsipeptide Substrate; AnaSpec, Inc. cat #22991) (FRET peptide), described by Taliani et al. in Anal. Biochem. 240(2):60-67 (1996). The sequence of this peptide is loosely based on the NS4A/NS4B natural cleavage site for the HCV NS3 protease except there is an ester linkage rather than an amide bond at the cleavage site. The peptide also contains a fluorescence donor, EDANS, near one end of the peptide and an acceptor, DABCYL, near the other end. The fluorescence of the peptide is quenched by […] resonance energy transfer (RET) between the donor and the acceptor, but as the NS3 protease cleaves the peptide the products are released from RET quenching and the fluorescence of the donor becomes apparent.
The peptide substrate was incubated with one of the three recombinant NS3/4A protease complexes, in the absence or presence of a compound of the present disclosure. The inhibitory effects of a compound were determined by monitoring the formation of fluorescent reaction product in real time using a Cytofluor Series 4000.
Assay buffer: 50 mM HEPES, pH 7.5; 0.15M NaCl; 0.1% Triton; 15% Glycerol; 10 mM βME. Substrate: 2 μM final concentration (from a 2 mM stock solution in DMSO stored at −20° C.). HCV NS3/4A protease type 1a (1b), 2-3 nM final concentration (from a 5 μM stock solution in 25 mM HEPES, pH 7.5, 20% glycerol, 300 mM NaCl, 0.2% Triton-X100, 10 mM βME). […]

[2] = test system: HCV replicon (Renilla luciferase) in HUH-7 cells; assay: HCV replicon luciferase reporter assay; assay type: cell-based, HCV strain 1b; conditions: Huh-7, 96 h, 4 days
Description: As a secondary assay, EC50 determinations from the replicon FRET assay were confirmed in a replicon luciferase reporter assay. Utilization of a replicon luciferase reporter assay was first described by Krieger et al (Krieger N, Lohmann V, and Bartenschlager R, J. Virol. 75(10):4614-4624 (2001)). The replicon construct described for our FRET assay was modified by inserting cDNA encoding a humanized form of the Renilla luciferase gene and a linker sequence fused directly to the 3′-end of the luciferase gene. This insert was introduced into the replicon construct using an Asc1 restriction site located in core, directly upstream of the neomycin marker gene. The adaptive mutation at position 1179 (serine to isoleucine) was also introduced (Blight K J, Kolykhalov, A A, Rice, C M, Science 290(5498):1972-1974). A stable cell line constitutively expressing this HCV replicon construct was generated as described above. The luciferase reporter assay was set up as described for the HCV replicon FRET assay with the following modifications. Following 4 days in a 37° C./5% CO2 incubator, cells were analyzed for Renilla Luciferase activity using the Promega Dual-Glo Luciferase Assay System. […] Plates were read on a Packard TopCount NXT using a luminescence program.
The percentage inhibition was calculated using the formula below: […]
The values were graphed and analyzed using XLfit to obtain the EC50 value.

T1 sequence (P27958 1027-1657, change not shown, one chain of several): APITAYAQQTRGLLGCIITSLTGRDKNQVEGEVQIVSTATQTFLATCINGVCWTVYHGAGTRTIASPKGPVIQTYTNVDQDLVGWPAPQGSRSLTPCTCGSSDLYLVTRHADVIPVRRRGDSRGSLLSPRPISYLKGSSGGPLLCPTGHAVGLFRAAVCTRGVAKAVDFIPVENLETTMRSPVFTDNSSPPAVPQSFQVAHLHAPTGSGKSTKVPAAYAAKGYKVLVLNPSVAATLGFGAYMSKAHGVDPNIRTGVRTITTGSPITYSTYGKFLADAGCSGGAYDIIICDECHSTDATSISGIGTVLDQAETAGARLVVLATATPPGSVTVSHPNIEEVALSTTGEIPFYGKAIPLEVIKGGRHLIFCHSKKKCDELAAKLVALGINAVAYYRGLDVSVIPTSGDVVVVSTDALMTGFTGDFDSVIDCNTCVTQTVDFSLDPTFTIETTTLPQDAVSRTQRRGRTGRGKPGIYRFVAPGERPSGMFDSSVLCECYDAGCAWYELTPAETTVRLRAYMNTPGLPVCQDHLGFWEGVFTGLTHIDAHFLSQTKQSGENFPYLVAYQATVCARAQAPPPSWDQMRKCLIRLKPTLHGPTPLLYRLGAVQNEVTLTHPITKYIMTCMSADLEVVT

**Q.** For C=C[C@@H]1C[C@]1(NC(=O)[C@@H]1C[C@@](O)(c2ccc(-c3ccccc3)cc2)CN1C(=O)[C@@H](NC(=O)OC(C)(C)C)C(C)(C)C)C(=O)NS(=O)(=O)C1CC1 [Compound 3], which IC50 ([1]; BMS strain, read-out: IC50 against the NS3/4A BMS strain in the enzyme assay) is on record?
**A.** 4 nM

**Q.** What about the IC50 ([1]; NS3/4A BMS strain, read-out: Activity Range (IC50)) of the same compound?
**A.** 1 to 100 nM

**Q.** What about the EC50 [2] of the same compound?
**A.** 14 nM

— patent publication US7592336B2, “Hepatitis C virus inhibitors” (Bristol-Myers Squibb Company, priority 2005, dated 2009)
